Experimental data taken from patent US9334272B2, “Derivatives of purinic and pyrimidinic antiviral agents and use thereof as potent anticancer agents” (Ramot at Tel-Aviv University Ltd., priority 2007, dated 2016).

Tests used:
MCF-7 cells = assay: Hoechst viability assay, MCF-7 breast carcinoma cells; assay type: cell-based, human
Method: Cells (in quadruplicate) at the specified density were suspended in 200 μL medium supplemented with 10% FCS seeded in 96-well plates for 24 hours, then exposed to the drugs for 72 hours. The viability of the cells was determined by Hoechst fluorescent assay as described by Nudelman et al., 2005. Leukemic cell viability after 72 hours of treatment was determined by an MTT (3-(4,5-dimethylthiazol-2-yl)-2,5-diphenyltetrazolium bromide) assay as described by Levovich et al., 2007.
IC50 values were determined by linear regression of the percentage of survival following drug titration.

[1] = system: 3LLD122 Lewis lung carcinoma; assay: Metastatic Lewis lung carcinoma (3LL) model; assay type: in vivo, mice; details: Compound 6 30 mg/kg, Compound 7 25 mg/kg, per os thrice per week, 21 days; p<0.02 vs acyclovir
Method: Female C57/BL mice, 7-10 weeks old, were acclimated for ten days. All in vivo experiments were conducted according to the NIH Laboratory Animal Care Guidelines and in accordance with the guidelines and approval of the Tel Aviv University Committee for Animal Experimentation.
The subclone 3LLD122 of 3LL used in the study was selected for its aggressive and invasive nature. […] The animals were sacrificed after 21 days of treatment, their lungs were weighed, stained with Bouin's fixative and the metastatic lesions were scored double-blindly.

CCCC(CCC)C(=O)Nc1nc2c(ncn2COCCOC(=O)C(CCC)CCC)c(=O)[nH]1 [Compound 6, N-valproyl-9-(2-valproyloxy)ethoxymethylguanine]
effect of N-acetylcysteine (NAC) on the activity of the compound (MCF-7 cells; 400 μM NAC, FIG. 3b): did not reduce the activity
IC50 fold lower than that of VA (MCF-7 cells; MCF-7 cells, Hoechst): over 20 fold
IC50 fold lower than that of the mixture of VA and acyclovir (MCF-7 cells; MCF-7 cells, Hoechst, acyclovir:VA 1:2): over 50 fold
number of lung macro-lesions (anti-metastatic activity) [1]: significant anti-metastatic activity
